Columns and labels:
[1] = test system: Z138 cells; experiment: MTT cell proliferation assay, Z138 cells; type: cell-based, human; settings: Homo sapiens, Z-138, incubation approximately 64-72 hours
Description: (§1) The MTT cell proliferation assay was used to study the cytotoxic properties of the compounds. The assay was performed according to the method described by Roche Molecular Biochemicals, with minor modifications. The assay is based on the cleavage of the tetrazolium salt, MTT, in the presence of an electron-coupling reagent. The water-insoluble formazan salt produced must be solubilized in an additional step. Cells grown in a 96-well tissue culture plate were incubated with the MTT solution for approximately 4 hours. After this incubation period, a water-insoluble formazan dye formed. After solubilization, the formazan dye was quantitated using a scanning multi-well spectrophotometer (ELISA reader). […] The cells were seeded at 5,000-10,000 cells in each well of 96-well plate in 100 μL of fresh culture medium and were allowed to attach overnight. The stock solutions of the compounds were diluted in 100 μL cell culture medium to obtain eight concentrations of each test compound, ranging from 1 nM to 30 μM. […] All optical densities were measured at 490 nm using a Vmax Kinetic Microplate Reader (Molecular Devices). In most cases, the assay was performed in duplicate and the results were presented as a mean percent inhibition to the negative control+SE. The following formula was used to calculate the percent of inhibition: Inhibition (%)=(1−(ODo/OD))×100.
(§2) The compounds were tested against MS751, Z138 and 3T3 cells. The MS751 cell line is derived from a metastasis to lymph node of human cervix from a patient diagnosed with squameous cell carcinoma of the cervix. The Z138 cell line is a mature B-cell acute lymphoblastic leukemia cell line derived from a patient with chronic lumphocytic leukemia. 3T3 cells are standard fibroblast cells; they were originally isolated from Swiss mouse embryo tissue.

[2] = test system: 3T3 cells; experiment: MTT cell proliferation assay, 3T3 cells; type: cell-based, mouse; settings: Mus musculus, NIH3T3; 3T3 fibroblast cells; incubation approximately 64-72 hours
Description: as §1, §2

[3] = test system: MS751 cells; experiment: MTT cell proliferation assay, MS751 cells; type: cell-based, human; settings: Homo sapiens, incubation approximately 64-72 hours, read-out: MTT Assay IC50 MS 751
Description: as §1, §2

Nc1ccc([C@H]2C[C@@H]2C(=O)NCc2cc3cc(-c4ccc(C(=O)N5CCNCC5)cc4)cc(-c4ccc(F)cc4)c3o2)cn1 (stereo in doubt) [Compound K027, (1S,2S)-2-(6-aminopyridin-3-yl)-N—((7-(4-fluorophenyl)-5-(4-(piperazine-1-carbonyl)phenyl)benzofuran-2-yl)methyl)cyclopropanecarboxamide]
IC50 [1]: < 1000 nM | IC50 [2]: > 10000 nM

Nc1ccc(C2CC2C(=O)NCCCOc2cc(-c3ccc(C(=O)N4CCC(F)(F)CC4)cc3)cc(C(F)(F)F)c2)cn1 (centres unmarked) [Compound K002, 2-(6-aminopyridin-3-yl)-N—(3-(4′-(4,4-difluoropiperidine-1-carbonyl)-5-(trifluoromethyl)biphenyl-3-yloxy)propyl)cyclopropanecarboxamide]
IC50 [3]: < 1000 nM | IC50 [1]: < 1000 nM | IC50 [2]: 1000 to 5000 nM

Nc1ccc(C2CC2C(=O)NCCOc2ccc(-c3ccc(C(=O)N4CCC(F)(F)CC4)cc3)cc2-c2ccc(F)cc2F)cn1 (centres unmarked) [Compound K003, 2-(6-aminopyridin-3-yl)-N—(2-(3-(2,4-difluorophenyl)-4′-(4,4-difluoropiperidine-1-carbonyl)biphenyl-4-yloxy)ethyl)cyclopropanecarboxamide]
IC50 [3]: < 1000 nM | IC50 [1]: < 1000 nM | IC50 [2]: 5000 to 10000 nM

Nc1ccc(C2CC2C(=O)NCc2cc3cc(-c4ccc(C(=O)N5CCC(F)(F)CC5)cc4F)cc(-c4ccc(F)cc4)c3o2)cn1 (centres unmarked) [Compound K004, 2-(6-aminopyridin-3-yl)-N—((5-(4-(4,4-difluoropiperidine-1-carbonyl)-2-fluorophenyl)-7-(4-fluorophenyl)benzofuran-2-yl)methyl)cyclopropanecarboxamide]
IC50 [3]: < 1000 nM | IC50 [1]: < 1000 nM | IC50 [2]: > 10000 nM

Nc1ccc([C@H]2C[C@@H]2C(=O)NCCCOc2cc(-c3ccc(C(=O)N4CCC(F)(F)CC4)cc3)cc(C(F)(F)F)c2)cn1 [Compound K005, (1S,2S)-2-(6-aminopyridin-3-yl)-N—(3-(4′-(4,4-difluoropiperidine-1-carbonyl)-5-(trifluoromethyl)biphenyl-3-yloxy)propyl)cyclopropanecarboxamide]
IC50 [3]: < 1000 nM | IC50 [1]: < 1000 nM | IC50 [2]: < 1000 nM

Nc1ccc([C@@H]2C[C@H]2C(=O)NCCCOc2cc(-c3ccc(C(=O)N4CCC(F)(F)CC4)cc3)cc(C(F)(F)F)c2)cn1 [Compound K006, (1R,2R)-2-(6-aminopyridin-3-yl)-N—(3-(4′-(4,4-difluoropiperidine-1-carbonyl)-5-(trifluoromethyl)biphenyl-3-yloxy)propyl)cyclopropanecarboxamide]
IC50 [3]: < 1000 nM | IC50 [1]: < 1000 nM | IC50 [2]: 1000 to 5000 nM

Nc1ccc([C@H]2C[C@@H]2C(=O)NCc2cc3cc(-c4ccc(C(=O)N5CCC(F)(F)CC5)cc4)cc(C(F)(F)F)c3o2)cn1 [Compound K007, (1S,2S)-2-(6-aminopyridin-3-yl)-N—((5-(4-(4,4-difluoropiperidine-1-carbonyl)phenyl)-7-(trifluoromethyl)benzofuran-2-yl)methyl)cyclopropanecarboxamide]
IC50 [3]: 1000 to 5000 nM | IC50 [1]: 1000 to 5000 nM | IC50 [2]: > 10000 nM

Nc1ccc([C@@H]2C[C@H]2C(=O)NCc2cc3cc(-c4ccc(C(=O)N5CCC(F)(F)CC5)cc4)cc(C(F)(F)F)c3o2)cn1 [Compound K008, (1R,2R)-2-(6-Aminopyridin-3-yl)-N—((5-(4-(4,4-difluoropiperidine-1-carbonyl)phenyl)-7-(trifluoromethyl)benzofuran-2-yl)methyl)cyclopropanecarboxamide]
IC50 [3]: > 10000 nM | IC50 [1]: 1000 to 5000 nM | IC50 [2]: > 10000 nM

Nc1ccc(C2CC2C(=O)NCc2ccc(-c3ccc(-c4ccc(C(=O)N5CCC(F)(F)CC5)cn4)cc3C(F)(F)F)o2)cn1 (centres unmarked) [Compound K009, 2-(6-aminopyridin-3-yl)-N—((5-(4-(5-(4,4-difluoropiperidine-1-carbonyl)pyridin-2-yl)-2-(trifluoromethyl)phenyl)furan-2-yl)methyl)cyclopropanecarboxamide]
IC50 [3]: < 1000 nM | IC50 [1]: < 1000 nM | IC50 [2]: 5000 to 10000 nM

Nc1ccc([C@H]2C[C@@H]2C(=O)NCc2cc3cc(-c4ccc(C(=O)N5CCC(F)(F)CC5)cc4)cc(-c4ccc(F)cc4F)c3o2)cn1 [Compound K010, (1S,2S)-2-(6-aminopyridin-3-yl)-N—((7-(2,4-difluorophenyl)-5-(4-(4,4-difluoropiperidine-1-carbonyl)phenyl)benzofuran-2-yl)methyl)cyclopropanecarboxamide]
IC50 [3]: < 1000 nM | IC50 [1]: < 1000 nM | IC50 [2]: 1000 to 5000 nM

Nc1ccc([C@H]2C[C@@H]2C(=O)NCc2cc3cc(-c4ccc(C(=O)N5CCC(F)(F)CC5)cc4)cc(-c4ccc(F)cc4)c3o2)cn1 [Compound K011, (1S,2S)-2-(6-aminopyridin-3-yl)-N—((5-(4-(4,4-difluoropiperidine-1-carbonyl)phenyl)-7-(4-fluorophenyl)benzofuran-2-yl)methyl)cyclopropanecarboxamide]
IC50 [3]: < 1000 nM | IC50 [1]: < 1000 nM | IC50 [2]: > 10000 nM

Nc1ccc([C@H]2C[C@@H]2C(=O)NCc2cc3cc(-c4ccc(C(=O)N5CCC(F)(F)CC5)cn4)cc(-c4ccc(F)cc4)c3o2)cn1 [Compound K012, (1S,2S)-2-(6-aminopyridin-3-yl)-N—((5-(5-(4,4-difluoropiperidine-1-carbonyl)pyridin-2-yl)-7-(4-fluorophenyl)benzofuran-2-yl)methyl)cyclopropanecarboxamide]
IC50 [3]: < 1000 nM | IC50 [1]: < 1000 nM | IC50 [2]: 1000 to 5000 nM

Nc1ccc([C@H]2C[C@@H]2C(=O)NCc2cc3cc(-c4ccc(C(=S)N5CCC(F)(F)CC5)cc4)cc(-c4ccc(F)cc4)c3o2)cn1 [Compound K013, (1S,2S)-2-(6-aminopyridin-3-yl)-N—((5-(4-(4,4-difluoropiperidine-1-carbonothioyl)phenyl)-7-(4-fluorophenyl)benzofuran-2-yl)methyl)cyclopropanecarboxamide]
IC50 [3]: < 1000 nM | IC50 [1]: < 1000 nM | IC50 [2]: 1000 to 5000 nM

Nc1ccc([C@H]2C[C@@H]2C(=O)NCc2cc3cc(-c4ccc(C(=O)N5CCC(F)(F)CC5)cc4)cc(-c4cccc(F)c4)c3o2)cn1 [Compound K014, (1S,2S)-2-(6-aminopyridin-3-yl)-N—((5-(4-(4,4-difluoropiperidine-1-carbonyl)phenyl)-7-(3-fluorophenyl)benzofuran-2-yl)methyl)cyclopropanecarboxamide]
IC50 [3]: < 1000 nM | IC50 [1]: < 1000 nM | IC50 [2]: 1000 to 5000 nM

Nc1ccc([C@H]2C[C@@H]2C(=O)NCc2cc3cc(-c4ccc(C(=O)N5CCC(F)(F)CC5)cc4)cc(-c4ccc(F)cc4)c3s2)cn1 [Compound K015, (1S,2S)-2-(6-aminopyridin-3-yl)-N—((5-(4-(4,4-difluoropiperidine-1-carbonyl)phenyl)-7-(4-fluorophenyl)benzo[b]thiophen-2-yl)methyl)cyclopropanecarboxamide]
IC50 [3]: 1000 to 5000 nM | IC50 [1]: 1000 to 5000 nM | IC50 [2]: > 10000 nM

Nc1ccc([C@H]2C[C@@H]2C(=O)NCc2cc3cc(-c4ccc(C(=O)N5CC(Cl)C5)cc4)cc(-c4ccc(F)cc4)c3o2)cn1 [Compound K016, (1S,2S)-2-(6-aminopyridin-3-yl)-N—((5-(4-(3-chloroazetidine-1-carbonyl)phenyl)-7-(4-fluorophenyl)benzofuran-2-yl)methyl)cyclopropanecarboxamide]
IC50 [3]: < 1000 nM | IC50 [1]: < 1000 nM | IC50 [2]: 1000 to 5000 nM

Reference: patent publication US20180244660A1, “CYCLOPROPYLDERIVATIVES AND THEIR USE AS KINASE INHIBITORS” (Karyopharm Therapeutics Inc., priority 2015, published 2018)
